Results on 35 compounds are retold here after patent US5409946A, “Isoxazole, isothiazole and pyrazole compounds that enhance cognitive function” (Abbott Laboratories, priority 1993, dated 1995).

pKi: −log10 of the molar value. Counter-ions that a name gives are not always drawn. Like-named read-outs stand apart in the source and are kept apart here.

The target in data set [1] is neuronal nicotinic receptors. Nature of the data set: Displacement of [3H]-MCC or [3H]-cytisine from neuronal nicotinic receptors, whole rat brain membranes. In kind it is binding. The settings on record: Table 1, read-out: Nicotinic Receptor Ki. On the procedure:
Binding of [^3 H]-methylcarbamylcholine ([^3 H]-MCC) or [^3 H]-cytisine ([^3 H]-CYT) to nicotinic receptors was accomplished using crude synaptic membrane preparations from whole rat brain (Snyder and Enna, Brain Research, 1975, 100:81). Washed membranes were stored at -80° C. prior to use. Frozen aliquots were slowly thawed and resuspended in 20 volumes of buffer (containing: 120 mM NaCl, 5 mM KCl, 2 mM MgCl2, 2 mM CaCl2 and 50 mM Tris-Cl, pH 7.4 @4° C). After centrifuging at 20,000 X g for 15 minutes, the pellets were resuspended in 30 volumes of buffer. Homogenate (containing 125-150 μg protein) was added to triplicate tubes containing concentrations of test compound and [^3 H]-MCC (3 nM) in a final volume of 500 μL. Samples were incubated for 60 minutes at 4° C., then rapidly filtered through Whatman GF/B filters presoaked in 0.5% polyethylimine using 3×4 mL of ice-cold buffer. Alternately, homogenate and test compound were incubated for 75 min with [^3 H]-CYT (1.3 nM), then rapidly filtered, as described above. The filters are counted in 4 mL of Ecolume® (ICN). […] IC50 values were determined with the ALLFIT nonlinear least squares curve-fitting program and IC50 values were converted to Ki values using the Cheng and Prusoff correction (Ki =IC50 /(1+[ligand]/Kd of ligand)). Alternately, data were expressed as a percentage of the total specific binding.

In data set [2] the test system is ethanol-induced narcosis. In kind it is in vivo, male CD1 mice. The settings on record: post-treatment. An excerpt:
It is known that administration of ethanol to mice induces a state of narcosis in the animals. […] It is also known that certain compounds can modify the narcotic effect of ethanol in this model.
Animals: Male CD1 mice (Charles-River Co., Portage, Mich.) weighing 25-30 g were used in the experiments. Upon arrival they were caged in groups of 14 and allowed to acclimatize to laboratory conditions for one week before the beginning of the studies. They were fed standard rodent diet with food and water ad libitum.
Duration of sleep time: Mice received intraperitoneal (i.p.) injections of ethanol and either saline or one of the drug treatments. Upon loss of the righting reflex, a timer was started to record the duration of the sleep time until the reflex was recovered. Two types of experiments were conducted to study the effect of drugs before (pre-treatment) or after (post-treatment) the injection of the narcotic dose of ethanol. In the pre-treatment experiments the drugs were injected i.p., 15 minutes before ethanol. In the post-treatment experiments the drugs were administered i.p., 1 minute after the animals lost the righting reflex, which was approximately 5 minutes after administration of ethanol.
Drugs: Ethanol was prepared as a 20% v/v (16% w/v) solution in saline. Based on previous studies, a dose of 87 mmol/kg (4 g/kg) was selected as the narcotic dose. RO 15-4513, the benzodiazepine receptor inverse agonist discussed in the Background section, was purchased from RBI (Natick, Mass.). It was dissolved in saline solution with Tween-80 and ultrasonically homogenized for 3 minutes. […] The compounds of Examples 2 and 4, both novel neuronal nicotinic receptor ligands according to the present invention, were also dissolved in saline to the desired concentrations.

Data set [3] has as its system cholinergic receptors located in the heart and in cortical tissues. The settings on record: cited from earlier work.
For data set [4] the following is noted: in vivo; cited from earlier work.

As a reminder, the pKi is −log10 of the Ki, conventionally taken in molar units. As for `Cc1cc([C@H]2C[C@H](O)CN2C)on1` (relative stereo) [Example 21, 3-Methyl-5-(trans-4-hydroxy-1-methyl-2-pyrrolidinyl)-isoxazole oxalate salt], the negative-log Ki (pKi) in data set [1] was 6.94. Regarding `Cc1cc([C@H]2C[C@H](CF)CN2C)on1` (relative stereo) [Example 22, 3-Methyl-5-(trans-4-fluoromethyl-1-methyl-2-pyrrolidinyl)-isoxazole hydrochloride], the pKi in data set [1] was 6.74. Consider `Cc1cc([C@H]2C[C@H](C)CN2C)on1` (relative stereo) [Example 24, 3-Methyl-5-(trans-1,4-dimethyl-2-pyrrolidinyl)-isoxazole oxalate salt], for which the pKi in data set [1] is 7.62. For the compound `Cc1cc([C@H]2CC[C@H](C)N2C)on1` (relative stereo) [Example 25, 3-Methyl-5-(trans-1,5-dimethyl-2-pyrrolidinyl)-isoxazole oxalate salt], in data set [1], the negative-log Ki (pKi) was 6.54. Take `Cc1cc([C@@H]2CCCN2)on1` [Example 1, 3-Methyl-5-(2(S)-pyrrolidinyl)-isoxazole oxalate salt]: the negative-log Ki (pKi) in data set [1] is 6.54. Regarding `CCc1cc([C@@H]2CCCN2)on1` [Example 3, 3-Ethyl-5-(2(S)-pyrrolidinyl)-isoxazole oxalate salt], the pKi in data set [1] is 6.21. For the compound `CCc1cc([C@@H]2CCCN2C)on1.O=C(O)C(=O)O` [Example 4, 3-Ethyl-5-(1-methyl-2(S)-pyrrolidinyl)-isoxazole oxalate salt], the Sleeping time in data set [2] (0.062 μmol/kg i.p.) is given as 73 ± 12 % of controls; in data set [2] (0.19 μmol/kg i.p.), 61 ± 7 % of controls; in data set [2] (0.62 μmol/kg i.p.) it was 59 ± 8 % of controls. Also, the “effect of post-treatment on ethanol-induced narcosis” value in data set [2] (i.p., p<0.05, one-tailed t test) is “significantly reduced”. Besides, the pKi in data set [1] (oxalate salt) is 8.05. As to `CN1CCC[C@H]1c1cc(Cc2ccccc2)no1` [Example 7, 3-Benzyl-5-(1-methyl-2(S)-pyrrolidinyl)-isoxazole oxalate salt], the pKi in data set [1] (oxalate salt) is 7.74.

For `CN1CCC[C@H]1c1cc(Cc2ccccc2)no1` [Example 8, 3-Benzyl-5-(1-methyl-2(S)-pyrrolidinyl)-isoxazole hydrochloride salt], the pKi in data set [1] (hydrochloride salt) is 7.89.

For the compound `CCCc1cc([C@@H]2CCCN2C)on1` [Example 9, 5-(1-Methyl-2(S)-pyrrolidinyl)-3-propyl-isoxazole hyrochloride salt], in data set [1], the negative logarithm of the Ki (pKi) was 7.85. As to `CCCCc1cc([C@@H]2CCCN2C)on1` [Example 10, 3-n-Butyl-5-(1-methyl-2(S)-pyrrolidinyl)-isoxazole hydrochloride salt], the pKi in data set [1] is 7.62. For the compound `Cc1cc([C@@H]2CCCN2C)on1` [Example 11, 3-Methyl-5-(1-methyl-2(S)-pyrrolidinyl)-isoxazole hydrochloride salt], the negative logarithm of the Ki (pKi) in data set [1] (hydrochloride salt) is 8.52. On to `CCc1cc([C@@H]2CCCN2C)on1` [Example 12, 3-Ethyl-5-(1-methyl-2(S)-pyrrolidinyl)-isoxazole hydrochloride salt], for which the negative logarithm of the Ki (pKi) in data set [1] (hydrochloride salt) was 8.15.

Regarding `CCN1CCC[C@H]1c1cc(C)no1` [Example 13, 5-(1-Ethyl-2(S)-pyrrolidinyl)-3-methyl-isoxazole hydrochloride salt], the negative-log Ki (pKi) in data set [1] is 7.47. Regarding `Cc1cc([C@H]2CCCN2)on1` [Example 14], the negative-log Ki (pKi) in data set [1] was 8.00. `Cc1cc([C@H]2CCCN2)on1` [Example 15, 3-Methyl-5-(2(R)-pyrrolidinyl)-isoxazole benzoate salt]: the negative logarithm of the Ki (pKi) in data set [1] was 8.15.

On to `Cc1cc([C@H]2CCCN2C)on1` [Example 16, 3-Methyl-5-(1-methyl-2(R)-pyrrolidinyl)-isoxazole hydrochloride salt], for which the pKi in data set [1] was 7.26.

For `CCc1cc([C@H]2CCCN2)on1` [Example 17, 3-Ethyl-5-(2(R)-pyrrolidinyl)-isoxazole oxalate salt], the pKi in data set [1] was 7.92. Still for that read-out and setting: with `Cc1cc([C@H]2CCCN2)sn1` [Example 19, 3-methyl-5-((2(R)-pyrrolidinyl)-isothiazole hydrochloride] the figure was 6.64; with `COCc1cc([C@@H]2CCCN2C)on1` [Example 20, 3-Methoxymethyl-5-(1-methyl-2(S)-pyrrolidinyl)-isoxazole fumarate salt], 7.66. With `CN1CCC[C@H]1c1cc(Br)no1` [Example 27, 3-Bromo-5-(1-methyl-2(S)-pyrrolidinyl)-isoxazole hydrochloride], the negative logarithm of the Ki (pKi) in data set [1] is 8.11. In the case of `CCN1C[C@H](C)C[C@H]1c1cc(C)no1` [Example 28c, trans-5-(1-ethyl-4-methyl-2(S)-pyrrolidinyl)-3-methyl-isoxazole hydrochloride], the pKi in data set [1] is 7.68. `Cc1cc([C@@H]2C[C@@H](C)CN2C)on1` [Example 28d, trans-5-(1-methyl-4-methyl-2(S)-pyrrolidinyl)-3-methyl-isoxazole hydrochloride]: in data set [1], the negative-log Ki (pKi) is 7.77. As to `COc1cc([C@@H]2CCCN2C)on1` [Example 29, 5-(1-methyl-2(S)-pyrrolidinyl-3-methoxy-isoxazole hydrochloride], the pKi in data set [1] was 7.21.

With `CN1CCC[C@H]1c1cc(C(F)(F)F)no1` [Example 32, 3-trifluoromethyl-5-(1-methyl-2(S)-pyrrolidinyl)-isoxazole, hydrochloride], in data set [1], the pKi is 8.21. For the compound `Cc1noc([C@@H]2CCCN2C)c1Cc1ccccc1` [Example 36, 3-methyl-5-(1-methyl-2(S)-pyrrolidinyl)-4-(phenylmethyl-isoxazole hydrochloride], the pKi in data set [1] is 7.11. As for `CCc1c(C)noc1[C@@H]1CCCN1C` [Example 37, 3-methyl-5-(1-methyl-2(S)-pyrrolidinyl)-4-ethyl-isoxazole hydrochloride], the negative-log Ki (pKi) in data set [1] is 6.98. For the compound `Cc1cc([C@H]2CCCCN2)on1` [Example 38, 3-methyl-5-(2(R)-piperidinyl)-isoxazole hydrochloride], in data set [1], the pKi was 6.41. The same measure, in the same setting: as for `Cc1cc([C@H]2CCCCN2C)on1` [Example 39, 3-methyl-5-(1-methyl-2(R)-piperidinyl)-isoxazole hydrochloride], the figure is 6.45.

For the compound `Cc1cc([C@@H]2CCCCN2)on1` [Example 40, 3-methyl-5-(2(S)-piperidinyl)-isoxazole hydrochloride], the pKi in data set [1] is 6.55. On the same count and under the same terms, with `Cc1cc([C@@H]2CCN2C)on1` [Example 41, 3-methyl-5-(1-methyl-2(S)-azetidinyl)-isoxazole hydrochloride] the figure was 8.60; with `Cc1cc([C@@H]2CCCN2C)n(-c2ccccc2)n1` [Example 42, 3-methyl-5-(1-methyl-2(S)-pyrrolidinyl)-1-phenyl-pyrazole hydrochloride], 6.84.

As for `Cc1cc([C@@H]2CCCN2C)[nH]n1` [Example 43, 3-methyl-5-(1-methyl-2(S)-pyrrolidinyl)-pyrazole hydrochloride], in data set [1], the pKi was 6.64. Consider `CCN1C(=O)CC2(CCN(C)CC2)C1=O` [RS-86], for which, in data set [3] (cardiac), the “agonism at cardiac receptors” value was “full agonist”. The “agonism at cortical receptors” value in data set [3] (cortical) is recorded as “partial agonist”.

Consider `C[N+](C)(C)CCOC(N)=O` [carbachol], for which the CNS penetration result in data set [4] is reported as “poor CNS penetration”.
